# According to US20220168392A1 (priority 2019, published 2022):
# Square brackets hold non-standard residues; d marks the D form. * marks the point of attachment. 2Nal = N[C@@H](Cc1ccc2ccccc2c1)C(=O)O; Propionyl = CCC(=O)*; Sar = CNCC(=O)O
# How the values were obtained:
# [1] = test system: healthy men; assay: Study NAP1001: single IV dose in healthy men (platelet counts, safety); assay type: in vivo, human; parameters: key to pharmacodynamics (PD) effect class of the dose (beneficial effects on survival): **: large pharmacodynamics (PD) effect; *: modest effect; conditions: for Humans Max Platelet Ratio: NAP 1001
# Protocol: In the FIH, single dose, Phase 1 clinical study NAP1001, 40 healthy men were enrolled, and 30 subjects received a single IV dose of RWJ-800088 as a 5-mg/mL solution in saline (dose range 0.375 to 3 μg/kg); 10 subjects received placebo. […] Thirty-three (83%) of 40 subjects reported at least 1 treatment-emergent adverse event throughout the study. Similar proportions of subjects reported treatment-emergent adverse events following administration of placebo (9 [90%] of 10 subjects) and RWJ-800088 (24 [80%] of 30 subjects). […] Mean platelet counts increased with increasing RWJ-800088 dose compared with placebo from Day 6 onwards, peaking at Days 10 to 12 before gradually returning to baseline by Day 21 (FIG. 19).
# The ratio of the maximum platelet counts to the baseline platelet counts following single escalating doses of RWJ-800088 to mice, rats, dogs, rhesus monkeys and human healthy volunteers is shown in Table 5. The dose required to achieve a 2-3.5-fold elevation in humans is ˜100-fold lower compared to mice, ˜1,000-fold lower compared to rats and >10,000-fold lower compared to canines and NHPs. […] The species differences in potency has been described for other TPO mimetics in the literature and is attributed to differences in receptor affinity (Erickson-Miller C L, et al. Discovery and characterization of a selective, nonpeptidyl thrombopoietin receptor agonist. Exp. Hematol. 2005; 33:85-93). […] It is discovered that the dose of RWJ-800088 that produces a survival benefit and protects against vascular and organ injury is the dose that produces a 2-4 fold elevation of platelets (Table 6).
# [2] = test system: mouse bone marrow cells; assay: Hematopoietic progenitor clonogenic (CFU) assay of bone marrow after 7 Gy TBI; assay type: in vivo
# Protocol: Hematopoietic Progenitor Clonogenic Assay: Clonogenicity of mouse bone marrow cells was quantified in standard semisolid cultures using 1 mL of Methocult GF+ system for mouse cells (Stem Cell Technologies Inc., Vancouver, BC) according to the manufacturer's instructions. Briefly, colony forming units (CFU) were assayed on days 0 (2 h post-TBI), 1, 3, 7, 15, and 30 after 7 Gy exposure or unirradiated mice. Cells from three femurs from different animals were pooled, washed twice with IMDM and seeded at 1 to 5×10^4 cells per 35 mm cell culture dishes (BD Biosciences, San Jose, Calif.). Each sample was plated in duplicate to be scored 14 days after plating. Granulocyte-macrophage colony forming units (CFU-GM), granulocyte-erythrocyte-monocyte-[…] CFU (CFU-GEMM), colony-forming unit-erythroid (CFU-E) and erythroid burst-forming units (BFU-E) were identified and quantified following the manufacturer's instructions. Colonies were counted 14 days after plating using a Nikon TS100F microscope. Fifty or more cells were considered one colony. Data were expressed as mean f standard error of mean (SEM). Statistical significance was determined between irradiated vehicle treated and RWJ-800088-treated groups.
# [3] = test system: subjects with cancer receiving platinum-based chemotherapy; assay: Study NAP1002: cancer patients receiving platinum-based chemotherapy; assay type: in vivo, human
# Protocol: In the second randomized, double-blind Phase 1 study (NAP1002), 46 subjects with cancer receiving platinum-based chemotherapy were enrolled into 3 cohorts: 12 subjects received 1.5 μg/kg RWJ-800088, 12 subjects received 2.25 μg/kg, 10 subjects received 3 μg/kg, and 12 subjects received placebo within 2 hours before administration of platinum-based chemotherapy on Day 1 of the first of 2 chemotherapy cycles. There was a 21-day interval between each chemotherapy cycle.
substance,measurement,setting,value
methoxypolyethyleneglycol20000-propionyl-L-Isoleucyl-L-Glutamyl-Glycyl-L-Prolyl-L-Threonyl-L-Leucyl-L-Arginyl-L-Glutaminyl-L-2-Naphthylalanyl-L-Leucyl-L-Alanyl-L-Alanyl-L-Arginyl-Sarcosyl-Ne-(methoxypolyethyleneglycol20000-propionyl-L-Isoleucyl-L-Glutamyl-Glycyl-L-Prolyl-L-Threonyl-L-Leucyl-L-Arginyl-L-Glutaminyl-L-2-Naphthylalanyl-L-Leucyl-L-Alanyl-L-Alanyl-L-Arginyl-Sarcosyl-)-Lysinamide ({mPEG 20 kDa-Propionyl}-IEGPTLRQ[2Nal]LAAR[Sar]K-NH2; also: dimer: second identical mPEG-propionyl chain on Lys Nε of C-terminal lysinamide) [RWJ-800088],subjects reporting treatment-emergent adverse events,"[1]; 24 of 30 subjects, single IV dose 0.375 to 3 μg/kg",80%
same,Average of the Maximum Platelet Elevation/Baseline Platelet Counts,"[1]; Human, dose 3 μg/kg",3.3
same,Dose for 2.0-4x Platelet Elevation in Healthy Subjects,[1]; Humans,≥2.25 µg/kg
same,pharmacodynamics (PD) effect class of the dose (beneficial effects on survival),"[1]; Humans, dose 2.25 μg/kg",**
same,pharmacodynamics (PD) effect class of the dose (beneficial effects on survival),"[1]; Humans, dose 3 μg/kg",**
same,Humans Max Platelet Ratio,[1]; dose 0.375 μg/kg,1.4 ± 0.3
same,Humans Max Platelet Ratio,[1]; dose 0.75 μg/kg,1.8 ± 0.4
same,Humans Max Platelet Ratio,[1]; dose 1.5 μg/kg,1.9 ± 0.7
same,Humans Max Platelet Ratio,[1]; dose 2.25 μg/kg,2.1 ± 0.8
same,Humans Max Platelet Ratio,[1]; dose 3 μg/kg,3.1 ± 1.1
same,enhancement of platelets over background,"[1]; humans, 3 μg/kg (FIG. 19)",3.5 fold
same,"incidence of adverse events, dose relation",[1]; single IV dose 0.375 to 3 μg/kg,not dose related
same,tolerability,"[1]; single IV doses up to and including 3 μg/kg, healthy men",well tolerated
same,total number of colonies in the vehicle-treated group compared to the RWJ-800088 treated group,"[2]; day 15 post-TBI 7 Gy, 24 h pre-TBI administration",significantly lower
same,"GM, GEMM, BFU-E and CFU-E, vehicle-treated vs RWJ-800088 treated groups",[2]; day 30 post-TBI 7 Gy,significantly lower (p<0.0001)
same,nadir and peak mean platelet counts vs placebo,[3]; 1.5 μg/kg,similar
same,day up to which mean platelet counts continued to decline,"[3]; 1.5 μg/kg, each cycle",15 days
same,"platelet nadir and peak platelet counts, fold higher relative to placebo",[3]; 3 μg/kg,approximately 2 fold
same,day of peak mean platelet counts,"[3]; 3.0 μg/kg, both cycles",15 days
same,serious adverse event of thrombocythemia (number),"[3]; 1.5, 2.25, and 3 μg/kg",1
same,tolerability,"[3]; 1.5, 2.25, and 3 μg/kg with platinum-based chemotherapy",well-tolerated
same,day on which mean platelet counts were lowest,"[3]; 2.25 and 3.0 μg/kg, each cycle",10 days
same,"nadir and peak platelet counts, fold higher than placebo",[3]; 2.25 or 3.0 μg/kg,approximately 2 fold
same,"Maximum Platelet Counts, GMR (Active/Placebo)","[3]; Across cycles, 1.5 μg/kg",1.0
same,"Maximum Platelet Counts, Geometric Mean","[3]; Across cycles, 1.5 μg/kg",374760 µL⁻¹
same,"Minimum Platelet Counts, GMR (Active/Placebo)","[3]; Across cycles, 1.5 μg/kg",0.6
same,"Minimum Platelet Counts, Geometric Mean","[3]; Across cycles, 1.5 μg/kg",34570 µL⁻¹
same,"Maximum Platelet Counts, GMR (Active/Placebo)","[3]; Across cycles, 2.25 μg/kg",1.6
same,"Maximum Platelet Counts, Geometric Mean","[3]; Across cycles, 2.25 μg/kg",574270 µL⁻¹
same,"Minimum Platelet Counts, GMR (Active/Placebo)","[3]; Across cycles, 2.25 μg/kg",2.7
same,"Minimum Platelet Counts, Geometric Mean","[3]; Across cycles, 2.25 μg/kg",165790 µL⁻¹
same,"Maximum Platelet Counts, GMR (Active/Placebo)","[3]; Across cycles, 3.0 μg/kg",1.8
same,"Maximum Platelet Counts, Geometric Mean","[3]; Across cycles, 3.0 μg/kg",662940 µL⁻¹
same,"Minimum Platelet Counts, GMR (Active/Placebo)","[3]; Across cycles, 3.0 μg/kg",2.2
same,"Minimum Platelet Counts, Geometric Mean","[3]; Across cycles, 3.0 μg/kg",134260 µL⁻¹
same,"Maximum Platelet Counts, GMR (Active/Placebo)","[3]; Cycle 1, 1.5 μg/kg",1.1
same,"Maximum Platelet Counts, Geometric Mean","[3]; Cycle 1, 1.5 μg/kg",329180 µL⁻¹
same,"Minimum Platelet Counts, GMR (Active/Placebo)","[3]; Cycle 1, 1.5 μg/kg",0.5
same,"Minimum Platelet Counts, Geometric Mean","[3]; Cycle 1, 1.5 μg/kg",46800 µL⁻¹
same,"Maximum Platelet Counts, GMR (Active/Placebo)","[3]; Cycle 1, 2.25 μg/kg",1.9
same,"Maximum Platelet Counts, Geometric Mean","[3]; Cycle 1, 2.25 μg/kg",564360 µL⁻¹
same,"Minimum Platelet Counts, GMR (Active/Placebo)","[3]; Cycle 1, 2.25 μg/kg",2.3
same,"Minimum Platelet Counts, Geometric Mean","[3]; Cycle 1, 2.25 μg/kg",217590 µL⁻¹
same,"Maximum Platelet Counts, GMR (Active/Placebo)","[3]; Cycle 1, 3.0 μg/kg",2.1
same,"Maximum Platelet Counts, Geometric Mean","[3]; Cycle 1, 3.0 μg/kg",642690 µL⁻¹
same,"Minimum Platelet Counts, GMR (Active/Placebo)","[3]; Cycle 1, 3.0 μg/kg",2.0
same,"Minimum Platelet Counts, Geometric Mean","[3]; Cycle 1, 3.0 μg/kg",188250 µL⁻¹
same,"Maximum Platelet Counts, GMR (Active/Placebo)","[3]; Cycle 2, 1.5 μg/kg",0.9
same,"Maximum Platelet Counts, Geometric Mean","[3]; Cycle 2, 1.5 μg/kg",294150 µL⁻¹
same,"Minimum Platelet Counts, GMR (Active/Placebo)","[3]; Cycle 2, 1.5 μg/kg",0.9
same,"Minimum Platelet Counts, Geometric Mean","[3]; Cycle 2, 1.5 μg/kg",76170 µL⁻¹
same,"Maximum Platelet Counts, GMR (Active/Placebo)","[3]; Cycle 2, 2.25 μg/kg",1.3
same,"Maximum Platelet Counts, Geometric Mean","[3]; Cycle 2, 2.25 μg/kg",401870 µL⁻¹
same,"Minimum Platelet Counts, GMR (Active/Placebo)","[3]; Cycle 2, 2.25 μg/kg",2.2
same,"Minimum Platelet Counts, Geometric Mean","[3]; Cycle 2, 2.25 μg/kg",177540 µL⁻¹
same,"Maximum Platelet Counts, GMR (Active/Placebo)","[3]; Cycle 2, 3.0 μg/kg",1.4
same,"Maximum Platelet Counts, Geometric Mean","[3]; Cycle 2, 3.0 μg/kg",434100 µL⁻¹
same,"Minimum Platelet Counts, GMR (Active/Placebo)","[3]; Cycle 2, 3.0 μg/kg",2.2
same,"Minimum Platelet Counts, Geometric Mean","[3]; Cycle 2, 3.0 μg/kg",179930 µL⁻¹
same,"Change From Baseline in Hemoglobin, Difference of LS Mean (SE) vs Placebo","[3]; Day 42, 1.5 μg/kg",0.54 g/dL
same,"Change From Baseline in Hemoglobin, LS Mean (SE)","[3]; Day 42, 1.5 μg/kg",−1.63 (0.50) g/dL
same,"Change From Baseline in Hemoglobin, Difference of LS Mean (SE) vs Placebo","[3]; Day 42, 2.25 μg/kg",0.57 g/dL
same,"Change From Baseline in Hemoglobin, LS Mean (SE)","[3]; Day 42, 2.25 μg/kg",−1.60 (0.42) g/dL
same,"Change From Baseline in Hemoglobin, Difference of LS Mean (SE) vs Placebo","[3]; Day 42, 3.0 μg/kg",1.00 g/dL
same,"Change From Baseline in Hemoglobin, LS Mean (SE)","[3]; Day 42, 3.0 μg/kg",−1.16 (0.47) g/dL
same,decrease of mean Hb concentration from baseline,"[3]; Day 42, 3.0-μg/kg group",1.16 g/dL
same,"Change From Baseline in Hemoglobin, Difference of LS Mean (SE) vs Placebo","[3]; Day 63, 1.5 μg/kg",-0.75 g/dL
same,"Change From Baseline in Hemoglobin, LS Mean (SE)","[3]; Day 63, 1.5 μg/kg",−2.98 (0.70) g/dL
same,"Change From Baseline in Hemoglobin, Difference of LS Mean (SE) vs Placebo","[3]; Day 63, 2.25 μg/kg",0.68 g/dL
same,"Change From Baseline in Hemoglobin, LS Mean (SE)","[3]; Day 63, 2.25 μg/kg",−1.55 (0.61) g/dL
same,"Change From Baseline in Hemoglobin, Difference of LS Mean (SE) vs Placebo","[3]; Day 63, 3.0 μg/kg",0.79 g/dL
same,"Change From Baseline in Hemoglobin, LS Mean (SE)","[3]; Day 63, 3.0 μg/kg",−1.44 (0.61) g/dL
same,"Change From Baseline in Hemoglobin, Difference of LS Mean (SE) vs Placebo","[3]; Day 84, 1.5 μg/kg",0.05 g/dL
same,"Change From Baseline in Hemoglobin, LS Mean (SE)","[3]; Day 84, 1.5 μg/kg",−1.88 (0.59) g/dL
same,"Change From Baseline in Hemoglobin, Difference of LS Mean (SE) vs Placebo","[3]; Day 84, 2.25 μg/kg",0.03 g/dL
same,"Change From Baseline in Hemoglobin, LS Mean (SE)","[3]; Day 84, 2.25 μg/kg",−1.90 (0.55) g/dL
same,"Change From Baseline in Hemoglobin, Difference of LS Mean (SE) vs Placebo","[3]; Day 84, 3.0 μg/kg",1.13 g/dL
same,"Change From Baseline in Hemoglobin, LS Mean (SE)","[3]; Day 84, 3.0 μg/kg",−0.80 (0.59) g/dL
same,Effects,"[3]; Humans, Phase 1b study, whole wrapped cell: Protection against thrombocytopenia and anemia",Protection against
same,day of mean peak platelet counts,"[3]; lower doses (1.5, 2.25 μg/kg), both cycles",21 days
same,"transient platelet increase, times the baseline","[3]; two subjects at 3.0 μg/kg, first cycle (stopping criteria)",more than 3 times the baseline
